Molecular target: tau (Homo sapiens, UniProt P10636)
Assay: MCE Phenols Library screening, tau biosensor cell seeding assay (AvZ)
Assay type: cell-based
Conditions: for Z repl 1 / Z Repl 2: Z score; for Z repl 1 / raw data 1: replicate 1; for Z Repl 2 / raw data 2: replicate 2; for AvZ (average z score of seeding, SDs from the mean level of seeding): 10 μM phenol in cell cultures, AD brain homogenate preincubated 16 hours, two biological replicates, positive = catalyzes seeding, negative = inhibits
[1] = average Z score of the two replicates, MCE Phenols Library screen
[2] = average puncta of the two replicates
[3] = average Z score of the two replicates, tau biosensor seeding, MCE Phenols Library screen
[4] = average Z score of two replicates, Phenols Library screen

Sequence of tau (P10636 623-695 limits assumed): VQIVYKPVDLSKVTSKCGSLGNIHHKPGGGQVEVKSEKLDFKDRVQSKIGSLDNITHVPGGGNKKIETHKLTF

COc1cc2ccc(=O)oc2c(O)c1O [Fraxetin]
Z repl 1: -0.275 | Z Repl 2: -0.769 | av Z [1]: -0.522 | av puncta [2]: 13803.1 | raw data 1 (puncta): 23050.6 | raw data 2 (puncta): 4555.69

CCCCCCCCC/C=C/C(=O)CCc1ccc(O)c(OC)c1 [[10]-Shogaol]
Z repl 1: -0.951 | Z Repl 2: -0.064 | av puncta [2]: 13509 | raw data 1 (puncta): 14936.2 | raw data 2 (puncta): 12081.7

Oc1ccc2c(c1)OC[C@H]1c3cc4c(cc3O[C@@H]21)OCO4 [(-?)?-Maackiain]
Z repl 1: 0.975 | Z Repl 2: 0.791 | av Z [3]: 0.883 | av puncta (average of raw data 1 and 2): 29633.2 | raw data 1 (puncta): 38055.6 | raw data 2 (puncta): 21210.9

CCCCC[C@H](O)CC(=O)CCc1ccc(O)c(OC)c1 [6-Gingerol]
AvZ (average z score of seeding, SDs from the mean level of seeding): 0.629

COc1c(O[C@@H]2O[C@H](C(=O)O)[C@@H](O)[C@H](O)[C@H]2O)cc(O)c2c(=O)cc(-c3ccccc3)oc12 [Wogonoside]
Z repl 1: -0.039 | Z Repl 2: -0.756 | av Z [1]: -0.398 | av puncta [2]: 15284.9 | raw data 1 (raw puncta): 25879 | raw data 2 (raw puncta): 4690.87

Punicalagin
Z repl 1: -2.185 | Z Repl 2: -1.19 | av Z [1]: -1.687 | av puncta (average of raw data 1 and 2): 87.672 | raw data 1 (puncta): 119.783 | raw data 2 (puncta): 55.562

Oc1cc(O)c2c(c1)O[C@H](c1ccc(O)c(O)c1)[C@H](O)[C@H]2c1c(O)cc(O)c2c1O[C@H](c1ccc(O)c(O)c1)[C@H](O)[C@H]2c1c(O)cc(O)c2c1O[C@H](c1ccc(O)c(O)c1)[C@H](O)C2 [Procyanidin C1]
Z repl 1: 0.76 | Z Repl 2: 1.6 | av Z [3]: 1.18 | av puncta (average of raw data 1 and 2): 32664.3 | raw data 1 (puncta): 35473.6 | raw data 2 (puncta): 29854.9

CC(C)=CCC[C@]1(C)C=Cc2c(O)c3c(c(CC=C(C)C)c2O1)O[C@]12C(=C[C@@H]4C[C@H]1C(C)(C)O[C@@]2(C/C=C(/C)C(=O)O)C4=O)C3=O [Gambogic acid]
AvZ (average z score of seeding, SDs from the mean level of seeding): -1.57 | Z repl 1: -2.192 | Z Repl 2: -0.952 | av Z [1]: -1.572 | av puncta (average of raw data 1 and 2): 1315.22 | raw data 1 (puncta): 33.834 | raw data 2 (puncta): 2596.6

O=C1C[C@@H](c2ccc(O)c(O)c2)Oc2cc(O[C@@H]3O[C@H](CO)[C@@H](O)[C@H](O)[C@H]3O)cc(O)c21 [Eriodictyol-7-O-glucoside]
Z repl 1: -0.303 | Z Repl 2: 0.417 | av Z [4]: 0.057 | av puncta (average of raw data 1 and 2): 19967.8 | raw data 1 (puncta): 22716.1 | raw data 2 (puncta): 17219.4

OC[C@H]1O[C@@H](Oc2cc3c(O)cc(O)cc3[o+]c2-c2ccc(O)c(O)c2)[C@H](O[C@@H]2OC[C@@H](O)[C@H](O)[C@H]2O)[C@@H](O)[C@@H]1O.[Cl-] [Cyanidin 3-sambubioside (chloride)]
Z repl 1: -0.124 | Z Repl 2: -1.008 | av Z [1]: -0.566 | av puncta [2]: 13432.8 | raw data 1 (puncta): 24866.3 | raw data 2 (puncta): 1999.21

O=Cc1cccc(O)c1 [3-Hydroxybenzaldehyde]
AvZ (average z score of seeding, SDs from the mean level of seeding): -0.137 | Z repl 1: 0.08 | Z Repl 2: -0.354 | av puncta (average of raw data 1 and 2): 18142.7 | raw data 1 (puncta): 27305.1 | raw data 2 (puncta): 8980.23

CC(=O)CCc1ccc(O)cc1 [Raspberry ketone]
AvZ (average z score of seeding, SDs from the mean level of seeding): -0.371 | Z repl 1: 0.027 | Z Repl 2: -0.77 | av puncta [2]: 15608.2 | raw data 1 (raw puncta): 26674.5 | raw data 2 (raw puncta): 4541.81

COc1ccc(CCO[C@@H]2O[C@H](CO[C@@H]3O[C@H](CO)[C@H](O)[C@H](O)[C@H]3O)[C@@H](OC(=O)/C=C/c3ccc(O)c(OC)c3)[C@H](O[C@@H]3O[C@@H](C)[C@H](O)[C@@H](O)[C@H]3O)[C@H]2O)cc1O [Jionoside B1]
Z repl 1: 0.183 | Z Repl 2: -0.42 | av Z [4]: -0.118 | av puncta (average of raw data 1 and 2): 18414.7 | raw data 1 (puncta): 28546.2 | raw data 2 (puncta): 8283.25

COc1ccc(-c2oc3c(CC=C(C)C)c(O)cc(O)c3c(=O)c2O[C@@H]2O[C@@H](C)[C@H](O)[C@@H](O)[C@H]2O)cc1 [Baohuoside I]
Z repl 1: 0.959 | Z Repl 2: 1.521 | av Z [3]: 1.24 | av puncta (average of raw data 1 and 2): 33434.4 | raw data 1 (puncta): 37856.1 | raw data 2 (puncta): 29012.8

COc1cc2c(=O)c3c(O)c([C@@H]4O[C@H](CO[C@@H]5OC[C@](O)(CO)[C@H]5O)[C@@H](O)[C@H](O)[C@H]4O)c(O)cc3oc2cc1O [Polygalaxanthone III]
Z repl 1: -0.439 | Z Repl 2: 0.604 | av Z [4]: 0.083 | av puncta (average of raw data 1 and 2): 20150.3 | raw data 1 (puncta): 21083.3 | raw data 2 (puncta): 19217.2

O=C1c2ccccc2C(=O)c2c1cc(O)c(CO)c2O [Lucidin]
Z repl 1: 0.331 | Z Repl 2: -0.667 | av Z [4]: -0.168 | av puncta (average of raw data 1 and 2): 17984.5 | raw data 1 (puncta): 30325.1 | raw data 2 (puncta): 5643.99

O=C1C[C@@H](c2ccc(O)c(O)c2)Oc2cc(O)cc(O)c21 [Eriodictyol]
Z repl 1: -0.756 | Z Repl 2: 0.192 | av Z [1]: -0.282 | av puncta [2]: 16042.6 | raw data 1 (raw puncta): 17267.7 | raw data 2 (raw puncta): 14817.6

COc1cc(CNC(=O)CCCCCCCC(C)C)ccc1O [Homodihydrocapsaicin I]
AvZ (average z score of seeding, SDs from the mean level of seeding): -0.169 | Z repl 1: -0.665 | Z Repl 2: 0.327 | av puncta (average of raw data 1 and 2): 17309.6 | raw data 1 (puncta): 18361.4 | raw data 2 (puncta): 16257.8

Oc1cc(O)c2c(c1)O[C@H](c1cc(O)c(O)c(O)c1)[C@@H](O)C2 [(+)-Gallocatechin]
Z repl 1: -0.679 | Z Repl 2: -1.082 | av Z [1]: -0.881 | av puncta (average of raw data 1 and 2): 9700.21 | raw data 1 (puncta): 18193.2 | raw data 2 (puncta): 1207.17

COc1cc(/C=C/C(=O)O[C@H]2C[C@@](O)(C(=O)O)C[C@H](O)[C@@H]2O)ccc1O (stereo in doubt) [3-Feruloylquinic acid]
Z repl 1: 0.043 | Z Repl 2: -0.387 | av Z [4]: -0.172 | av puncta (average of raw data 1 and 2): 17749.2 | raw data 1 (puncta): 26861 | raw data 2 (puncta): 8637.46

COc1cc([C@@H]2OC[C@@H]3[C@H]2CO[C@H]3c2cc(OC)c(O[C@@H]3O[C@H](CO)[C@@H](O)[C@H](O)[C@H]3O[C@@H]3OC[C@](O)(CO)[C@H]3O)c(OC)c2)cc(OC)c1O
Z repl 1: 0.189 | Z Repl 2: 0.95 | av Z (average Z score of the two replicates, tau seeding): 0.57 | av puncta (average of raw data 1 and 2): 25767.5 | raw data 1 (puncta): 28623.9 | raw data 2 (puncta): 22911

COc1c(O)cc2oc(-c3ccc(O)c(O)c3)cc(=O)c2c1O [Nepetin]
Z repl 1: -0.728 | Z Repl 2: -0.807 | av Z [1]: -0.768 | av puncta (average of raw data 1 and 2): 10877.8 | raw data 1 (puncta): 17608.6 | raw data 2 (puncta): 4146.93

COc1cc(CCCO)cc(OC)c1O [Dihydrosinapyl alcohol]
AvZ (average z score of seeding, SDs from the mean level of seeding): -0.284 | Z repl 1: -0.789 | Z Repl 2: 0.221 | av puncta [2]: 16004.7 | raw data 1 (raw puncta): 16882.6 | raw data 2 (raw puncta): 15126.8

OCc1ccccc1O [Salicyl alcohol]
AvZ (average z score of seeding, SDs from the mean level of seeding): -0.44 | Z repl 1: -0.325 | Z Repl 2: -0.555 | av puncta [2]: 14639.5 | raw data 1 (raw puncta): 22445.8 | raw data 2 (raw puncta): 6833.28

Oc1cc2cc[nH]c2cc1O [5,6-Dihydroxyindole]
AvZ (average z score of seeding, SDs from the mean level of seeding): -0.59 | Z repl 1: -0.206 | Z Repl 2: -0.973 | av puncta [2]: 13123.8 | raw data 1 (puncta): 23871.3 | raw data 2 (puncta): 2376.21

CC(C)=CCC/C(C)=C/Cc1cc(-c2coc3cc(O)ccc3c2=O)ccc1O [Corylifol A]
Z repl 1: 0.054 | Z Repl 2: -0.445 | av Z [4]: -0.196 | av puncta (average of raw data 1 and 2): 17502.5 | raw data 1 (puncta): 26996.8 | raw data 2 (puncta): 8008.18

O=c1c(-c2ccc(O)c(O)c2)coc2c([C@@H]3O[C@H](CO)[C@@H](O)[C@H](O)[C@H]3O)c(O)ccc12 [3'-Hydroxypuerarin]
Z repl 1: -0.715 | Z Repl 2: -0.346 | av Z [1]: -0.53 | av puncta [2]: 13419.8 | raw data 1 (puncta): 17766.4 | raw data 2 (puncta): 9073.25

C=C(C)[C@H](CC=C(C)C)Cc1c(O)cc(O)c2c1O[C@H](c1ccc(O)cc1OC)CC2=O [Leachianone A]
Z repl 1: -0.298 | Z Repl 2: 0.052 | av Z [4]: -0.123 | av puncta (average of raw data 1 and 2): 18045.6 | raw data 1 (puncta): 22771.5 | raw data 2 (puncta): 13319.6

CC(=O)OCCc1ccc(O)c(O)c1 [Hydroxytyrosol acetate]
Z repl 1: -0.003 | Z Repl 2: -1.049 | av puncta [2]: 13936.9 | raw data 1 (puncta): 26308.5 | raw data 2 (puncta): 1565.31

OC[C@H]1O[C@@H](Oc2cc3c(O)cc(O)cc3[o+]c2-c2ccc(O)c(O)c2)[C@H](O)[C@@H](O)[C@@H]1O.[Cl-] [Kuromanin (chloride)]
Z repl 1: -0.084 | Z Repl 2: -0.888 | av Z [1]: -0.486 | av puncta [2]: 14314.9 | raw data 1 (puncta): 25345.8 | raw data 2 (puncta): 3284.04

COc1ccc2cc3[n+](cc2c1OC)CCc1cc(O)c(O)cc1-3 [Demethyleneberberine]
Z repl 1: -0.088 | Z Repl 2: -0.204 | av Z [4]: -0.146 | av puncta (average of raw data 1 and 2): 17943.1 | raw data 1 (puncta): 25297.3 | raw data 2 (puncta): 10588.9

From paper PMC11784839, “Monoaminergic neurotransmitters are bimodal effectors of tau aggregation” (Science Advances, 2025)
